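Interpolation was linear, between the two tested concentrations surrounding the appropriate level; five concentrations were tested over 48 hours in 96-well plates. The concentration for 50% growth inhibition is given as GI50. TGI denotes the concentration required for complete inhibition of growth.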

The source of these data is PubChem BioAssay (NCI).

Test systems include SK-OV-3 ovarian; BT-549 breast; PC-3 prostate; MALME-3M melanoma; HCC-2998 colon; OVCAR-3 ovarian; CAKI-1 renal; RPMI-8226 leukemia.
Holding throughout (test): inhibition of tumour cell growth, NCI panel, 48 h

On to `FC(F)(F)c1ccc2c(c1)N(CCCN1CCN(C3CC3)CC1)c1ccccc1S2`, for which the GI50 is 12.9 µM with SK-OV-3 ovarian; 16.7 µM with BT-549 breast; 5.81 µM in the assay on PC-3 prostate; 14 µM with MALME-3M melanoma; 13.6 µM in the assay on HCC-2998 colon; 7.11 µM in the assay on OVCAR-3 ovarian. Also, the GI50 is 3.6 µM in the assay with CAKI-1 renal and 6.18 µM in the assay with RPMI-8226 leukemia. The TGI in the assay with SK-OV-3 ovarian was determined as 26.6 µM; in the assay with BT-549 breast it was 35.4 µM; in the assay with PC-3 prostate it was 20.2 µM; in the assay with MALME-3M melanoma it was 31.7 µM; in the assay on HCC-2998 colon, 27.5 µM; with OVCAR-3 ovarian, 20.3 µM. For the same compound, the figures for the TGI with CAKI-1 renal and in the assay on RPMI-8226 leukemia were 16.1 µM and 25.8 µM, respectively.

On to `COc1nccc(-c2c(-c3ccc(F)cc3)ncn2C2CCC(O)CC2)n1` (stereo not drawn), for which the GI50 is 57.3 µM in the assay with SK-OV-3 ovarian; above 100 µM with BT-549 breast; above 100 µM in the assay with PC-3 prostate; above 100 µM in the assay with MALME-3M melanoma; above 100 µM in the assay with HCC-2998 colon; above 82 µM in the assay with OVCAR-3 ovarian. Further, the figures for the GI50 with CAKI-1 renal and in the assay with RPMI-8226 leukemia were 25.2 µM and above 70.3 µM, respectively. For the same compound, the TGI with SK-OV-3 ovarian, in the assay with BT-549 breast, with PC-3 prostate, in the assay with MALME-3M melanoma, with HCC-2998 colon and with OVCAR-3 ovarian was above 100 µM in each case. Further, the TGI in the assay with CAKI-1 renal and in the assay with RPMI-8226 leukemia was above 100 µM in each case.

On to `Cc1sc2ncnc(Sc3nc4ccccc4[nH]3)c2c1C`, for which the GI50 in the assay with SK-OV-3 ovarian is 24.3 µM; with BT-549 breast it was 27.2 µM; with PC-3 prostate, 23.9 µM; in the assay on MALME-3M melanoma, 15.6 µM; with HCC-2998 colon it was 50.4 µM; in the assay on OVCAR-3 ovarian it was 23.3 µM. The GI50 with CAKI-1 renal was 25.4 µM; in the assay on RPMI-8226 leukemia it was 19.5 µM. For the same compound, the TGI in the assay with SK-OV-3 ovarian was 65.6 µM; with BT-549 breast, above 100 µM; with PC-3 prostate, above 100 µM; in the assay with MALME-3M melanoma it was 80.1 µM; in the assay on HCC-2998 colon, above 100 µM; in the assay with OVCAR-3 ovarian, 60 µM. The TGI in the assay on CAKI-1 renal and in the assay on RPMI-8226 leukemia was above 100 µM throughout.

For the compound `CC(=O)OCC(=O)[C@@]1(O)[C@H](C)C[C@H]2[C@@H]3C=C(C)C4=Cc5c(cnn5-c5ccc(F)cc5)C[C@]4(C)[C@H]3[C@@H](O)C[C@@]21C`, the GI50 in the assay with SK-OV-3 ovarian is 1.29 µM; in the assay with BT-549 breast, 1.77 µM; in the assay on PC-3 prostate it was 1.8 µM; in the assay with MALME-3M melanoma it was 2.36 µM; in the assay on HCC-2998 colon it was 1.88 µM; with OVCAR-3 ovarian, 1.78 µM. For the same compound, the GI50 was 2.57 µM in the assay with CAKI-1 renal and 0.161 µM in the assay on RPMI-8226 leukemia. The TGI with SK-OV-3 ovarian is 4.57 µM; in the assay on BT-549 breast, 4.78 µM; in the assay with PC-3 prostate, 5.06 µM; in the assay on MALME-3M melanoma, 8.98 µM; in the assay with HCC-2998 colon it was 3.77 µM; with OVCAR-3 ovarian it was 3.84 µM. Further, the TGI with CAKI-1 renal stood at 10 µM; with RPMI-8226 leukemia it was 1.14 µM.

With `CC(C)(C)Cn1c(N)nc2ccc(-c3[nH]c(C(C)(C)C)nc3-c3ccc(F)cc3)nc21`, the GI50 was 4.36 µM in the assay on SK-OV-3 ovarian; 12.1 µM with BT-549 breast; 12.6 µM with PC-3 prostate; 4.08 µM with MALME-3M melanoma; 11.1 µM in the assay with HCC-2998 colon; 9.47 µM with OVCAR-3 ovarian. Besides, the results for the GI50 in the assay on CAKI-1 renal and with RPMI-8226 leukemia were 3.91 µM and 3.29 µM, respectively. Besides, the TGI with SK-OV-3 ovarian was 18.5 µM; in the assay on BT-549 breast, 26 µM; in the assay with PC-3 prostate, above 62.5 µM; with MALME-3M melanoma it was 18.1 µM; in the assay on HCC-2998 colon it was 24.1 µM; in the assay on OVCAR-3 ovarian, 23.7 µM. Moreover, the TGI in the assay with CAKI-1 renal is 21.1 µM; in the assay with RPMI-8226 leukemia it was 28.4 µM.

With `O=C(O)C(/C=C/c1ccco1)=N\Nc1nc(-c2ccc(Cl)cc2)cs1`, the GI50 was 16.1 µM with SK-OV-3 ovarian; 16.9 µM with BT-549 breast; 17.3 µM with PC-3 prostate; 35.8 µM with MALME-3M melanoma; 14.2 µM in the assay on HCC-2998 colon; 9.51 µM in the assay with OVCAR-3 ovarian. Also, the figures for the GI50 in the assay on CAKI-1 renal and in the assay on RPMI-8226 leukemia were 16.6 µM and 15.8 µM, respectively. The TGI in the assay with SK-OV-3 ovarian, in the assay with BT-549 breast, with PC-3 prostate, with MALME-3M melanoma, in the assay on HCC-2998 colon and with OVCAR-3 ovarian was above 50 µM each time. In addition, the TGI with CAKI-1 renal and in the assay with RPMI-8226 leukemia was above 50 µM in each case.

In the case of `CC[C@@]1(O)C(=O)NCc2c1cc1n(c2=O)Cc2cc3cc4c(cc3nc2-1)OCO4`, the GI50 in the assay on SK-OV-3 ovarian is 1.5 µM; in the assay on BT-549 breast, 4.15 µM; with PC-3 prostate, 2.38 µM; in the assay on MALME-3M melanoma it was 1.47 µM; in the assay on HCC-2998 colon, 0.984 µM; in the assay with OVCAR-3 ovarian, 14.2 µM. The GI50 in the assay with CAKI-1 renal is 0.417 µM; in the assay with RPMI-8226 leukemia, 0.293 µM. Besides, the TGI with SK-OV-3 ovarian is above 82.2 µM; in the assay on BT-549 breast, above 100 µM; in the assay with PC-3 prostate, above 100 µM; in the assay with MALME-3M melanoma, 35.7 µM; in the assay on HCC-2998 colon, above 89.1 µM; in the assay on OVCAR-3 ovarian it was above 95.5 µM. In addition, the TGI in the assay on CAKI-1 renal was above 9.04 µM; with RPMI-8226 leukemia, 9.02 µM.

`COc1ccc(/C=C/C(=O)c2ccc(Nc3ncnc4ccccc34)cc2)cc1OC`: the GI50 with SK-OV-3 ovarian is 4.23 µM; in the assay with BT-549 breast it was 3.22 µM; with PC-3 prostate, 4.22 µM; with MALME-3M melanoma, 13.8 µM; with HCC-2998 colon, 3.22 µM; in the assay with OVCAR-3 ovarian, 5.1 µM. Also, the values for the GI50 in the assay with CAKI-1 renal and in the assay with RPMI-8226 leukemia were 16.8 µM and 0.365 µM, respectively. Also, the TGI was 35.5 µM in the assay on SK-OV-3 ovarian; 32 µM in the assay with BT-549 breast; above 100 µM with PC-3 prostate; above 100 µM with MALME-3M melanoma; 11.8 µM in the assay on HCC-2998 colon; above 100 µM with OVCAR-3 ovarian. For the same compound, the figures for the TGI with CAKI-1 renal and with RPMI-8226 leukemia were above 100 µM and 1.66 µM, respectively.
